Test results: US12448375B2, “Kinase inhibitors for the treatment of neurodegenerative diseases” (Ohio State Innovation Foundation, priority 2019, dated 2025)

Legend:
Assay type in all cases: biochemical
Conditions in all cases: HotSpot radiometric assay, 33P-ATP
[1] = target: T1, JNK3 (Homo sapiens, UniProt P53779); assay: HotSpot Kinase Assay (Reaction Biology Corp.), anti-JNK3 activity
T1 construct: purchased Reaction Biology Corp
Protocol: (§1) The anti-JNK3 activity of compounds prepared as in the previous examples was evaluated using a Reaction Biology Corp. HotSpot Kinase Assay. Base reaction buffer was 20 mM HEPES (4-(2-hydroxyethyl)-1-piperazineethanesulfonic acid) at pH 7.5 with 10 mM MgCl2, 1 mM EGTA (ethylene glycol-bis(β-aminoethyl ether)-N,N,N′,N′-tetracetic acid), 0.02% Brij™ 35, 0.02 mg/mL BSA (bovine serum albumin), 0.1 mM Na3VO4, 2 mM DTT (dithiothreitol), and 1% DMSO. Required cofactors were added individually to each kinase reaction.
(§2) Activity against related enzymes JNK1 and P38a was further assessed using the same assay.

[2] = target: T2, JNK1 (Homo sapiens, UniProt P45983); assay: HotSpot Kinase Assay, JNK1
T2 construct: purchased Reaction Biology Corp
T2 sequence (P45983 whole entry): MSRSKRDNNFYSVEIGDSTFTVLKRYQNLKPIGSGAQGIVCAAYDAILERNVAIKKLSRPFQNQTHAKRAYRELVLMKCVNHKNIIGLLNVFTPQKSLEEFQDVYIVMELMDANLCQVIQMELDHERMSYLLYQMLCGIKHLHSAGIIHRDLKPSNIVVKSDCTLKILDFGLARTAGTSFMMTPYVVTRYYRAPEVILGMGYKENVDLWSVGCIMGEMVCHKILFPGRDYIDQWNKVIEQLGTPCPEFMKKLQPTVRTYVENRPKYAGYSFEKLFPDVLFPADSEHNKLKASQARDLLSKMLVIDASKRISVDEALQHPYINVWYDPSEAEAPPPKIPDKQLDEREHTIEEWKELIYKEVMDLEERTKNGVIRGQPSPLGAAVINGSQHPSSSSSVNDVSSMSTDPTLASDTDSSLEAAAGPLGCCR
Protocol: as §1, §2

[3] = target: T3, p38a (Homo sapiens, UniProt Q16539); assay: HotSpot Kinase Assay, P38a
T3 construct: purchased Reaction Biology Corp
T3 sequence (Q16539 whole entry): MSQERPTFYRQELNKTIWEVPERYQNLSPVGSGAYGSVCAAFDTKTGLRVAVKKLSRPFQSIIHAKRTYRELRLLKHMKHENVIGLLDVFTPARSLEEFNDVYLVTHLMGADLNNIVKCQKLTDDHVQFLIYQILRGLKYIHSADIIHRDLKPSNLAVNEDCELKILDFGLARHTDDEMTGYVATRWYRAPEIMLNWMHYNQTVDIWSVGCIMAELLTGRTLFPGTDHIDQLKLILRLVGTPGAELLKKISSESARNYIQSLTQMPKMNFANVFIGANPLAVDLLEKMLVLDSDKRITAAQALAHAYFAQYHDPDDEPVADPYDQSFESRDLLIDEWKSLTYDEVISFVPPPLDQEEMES
Protocol: as §1, §2

T1 sequence (P53779 whole entry): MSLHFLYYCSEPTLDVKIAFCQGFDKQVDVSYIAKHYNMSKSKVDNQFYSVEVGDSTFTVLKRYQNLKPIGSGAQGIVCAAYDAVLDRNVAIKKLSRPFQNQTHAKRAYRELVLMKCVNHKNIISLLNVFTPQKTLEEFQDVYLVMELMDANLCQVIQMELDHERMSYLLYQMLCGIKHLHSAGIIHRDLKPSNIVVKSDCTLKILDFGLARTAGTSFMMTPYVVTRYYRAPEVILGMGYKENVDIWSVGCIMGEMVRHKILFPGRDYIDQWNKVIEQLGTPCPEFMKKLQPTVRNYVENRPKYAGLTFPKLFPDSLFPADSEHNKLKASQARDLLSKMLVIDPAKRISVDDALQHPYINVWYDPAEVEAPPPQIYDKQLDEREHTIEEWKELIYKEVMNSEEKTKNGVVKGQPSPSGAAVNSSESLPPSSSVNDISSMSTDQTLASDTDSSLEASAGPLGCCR

SMILES | IC50 [1] | IC50 [2] | IC50 [3]
O=C(N[C@H]1CCOC1)c1cc(-n2ncc3cc(Nc4ccccc4Cl)c(F)cc32)cs1 [Compound 32, (S)-4-(5-((2-chlorophenyl)amino)-6-fluoro-1H-indazol-1-yl)-N-(tetrahydrofuran-3-yl)thiophene-2-carboxamide] | < 200 nM | < 200 nM | < 200 nM
O=C(NC1COC1)c1cc(-n2ncc3cc(Nc4ccccc4Cl)c(F)cc32)cs1 [Compound 34, 4-(5-((2-chlorophenyl)amino)-6-fluoro-1H-indazol-1-yl)-N-(oxetan-3-yl)thiophene-2-carboxamide] | < 200 nM | > 1000 nM | 200 to 1000 nM
CC(C)N1CC[C@@H](NC(=O)c2cc(-n3ncc4cc(Nc5ccccc5Cl)ccc43)cs2)C1 [Compound 35, (R)-4-(5-((2-chlorophenyl)amino)-1H-indazol-1-yl)-N-(1-isopropylpyrrolidin-3-yl)thiophene-2-carboxamide] | < 200 nM | 200 to 1000 nM | 200 to 1000 nM
COCCNC(=O)c1cc(-n2ncc3cc(Nc4ccccc4Cl)c(F)cc32)cs1 [Compound 37, 4-(5-((2-chlorophenyl)amino)-6-fluoro-1H-indazol-1-yl)-N-(2-methoxyethyl)thiophene-2-carboxamide] | < 200 nM | < 200 nM | < 200 nM
O=C(NC1CCOCC1)c1cc(-n2ncc3cc(Nc4ccccc4Cl)c(F)cc32)cs1 [Compound 38, 4-(5-((2-chlorophenyl)amino)-6-fluoro-1H-indazol-1-yl)-N-(tetrahydro-2H-pyran-4-yl)thiophene-2-carboxamide] | < 200 nM | < 200 nM | < 200 nM
O=C(NCC(F)F)c1cc(-n2ncc3cc(Nc4ccccc4Cl)c(F)cc32)cs1 [Compound 39, 4-(5-((2-chlorophenyl)amino)-6-fluoro-1H-indazol-1-yl)-N-(2,2-difluoroethyl)thiophene-2-carboxamide] | < 200 nM | < 200 nM | < 200 nM
CC(=O)N1CC[C@H](NC(=O)c2cc(-n3ncc4cc(Nc5ccccc5Cl)c(F)cc43)cs2)C1 [Compound 40, (S)—N-(1-acetylpyrrolidin-3-yl)-4-(5-((2-chlorophenyl)amino)-6-fluoro-1H-indazol-1-yl)thiophene-2-carboxamide] | < 200 nM | 200 to 1000 nM | < 200 nM
CC(C)NC(=O)c1cc(-n2ncc3cc(Nc4ccccc4Cl)c(F)cc32)cs1 [Compound 44, 4-(5-((2-chlorophenyl)amino)-6-fluoro-1H-indazol-1-yl)-N-isopropylthiophene-2-carboxamide] | < 200 nM | < 200 nM | < 200 nM
CC(C)NC(=O)c1cc(-n2ncc3nc(Oc4ccccc4Cl)ncc32)cs1 [Compound 47, 4-(5-(2-chlorophenoxy)-1H-pyrazolo[4,3-d]pyrimidin-1-yl)-N-isopropylthiophene-2-carboxamide] | > 1000 nM | > 1000 nM | > 1000 nM
COCC(COC)NC(=O)c1cc(-n2ncc3nc(Oc4ccccc4Cl)ccc32)cs1 [Compound 48, 4-(5-(2-chlorophenoxy)-1H-pyrazolo[4,3-b]pyridin-1-yl)-N-(1,3-dimethoxypropan-2-yl)thiophene-2-carboxamide] | > 1000 nM | > 1000 nM | > 1000 nM
CNC(=O)c1cc(-n2ncc3nc(Oc4ccccc4Cl)ccc32)cs1 [Compound 49, 4-(5-(2-chlorophenoxy)-1H-pyrazolo[4,3-b]pyridin-1-yl)-N-methylthiophene-2-carboxamide] | 200 to 1000 nM | > 1000 nM | 200 to 1000 nM
O=C(NC1COC1)c1cc(-n2ncc3nc(Nc4ccccc4Cl)ccc32)cs1 [Compound 52, 4-(5-((2-chlorophenyl)amino)-1H-pyrazolo[4,3-b]pyridin-1-yl)-N-(oxetan-3-yl)thiophene-2-carboxamide] | < 200 nM | > 1000 nM | 200 to 1000 nM
O=C(NC(CO)CO)c1cc(-n2ncc3nc(Nc4ccccc4Cl)ccc32)cs1 [Compound 53, 4-(5-((2-chlorophenyl)amino)-1H-pyrazolo[4,3-b]pyridin-1-yl)-N-(1,3-dihydroxypropan-2-yl)thiophene-2-carboxamide] | < 200 nM | > 1000 nM | > 1000 nM
CC(C)NC(=O)c1cc(-n2ncc3nc(Nc4ccccc4Cl)ccc32)cs1 [Compound 54, 4-(5-((2-chlorophenyl)amino)-1H-pyrazolo[4,3-b]pyridin-1-yl)-N-isopropylthiophene-2-carboxamide] | < 200 nM | 200 to 1000 nM | 200 to 1000 nM
COCCNC(=O)c1cc(-n2ncc3nc(Nc4ccccc4Cl)ccc32)cs1 [Compound 55, 4-(5-((2-chlorophenyl)amino)-1H-pyrazolo[4,3-b]pyridin-1-yl)-N-(2-methoxyethyl)thiophene-2-carboxamide] | < 200 nM | > 1000 nM | 200 to 1000 nM
COCCNC(=O)c1cc(-n2ncc3nc(Oc4ccccc4Cl)ccc32)cs1 [Compound 56, 4-(5-(2-chlorophenoxy)-1H-pyrazolo[4,3-b]pyridin-1-yl)-N-(2-methoxyethyl)thiophene-2-carboxamide] | < 200 nM | 200 to 1000 nM | 200 to 1000 nM
CNC(=O)c1cc(-n2ncc3cc(Oc4ccccc4Cl)cnc32)cs1 [Compound 64, 4-(5-(2-chlorophenoxy)-1H-pyrazolo[3,4-b]pyridin-1-yl)-N-methylthiophene-2-carboxamide] | < 200 nM | 200 to 1000 nM | 200 to 1000 nM
CNC(=O)c1cc(-n2ncc3cc(Nc4ccccc4Cl)cnc32)c(C)s1 [Compound 65, 4-(5-((2-chlorophenyl)amino)-1H-pyrazolo[3,4-b]pyridin-1-yl)-N,5-dimethylthiophene-2-carboxamide] | < 200 nM | 200 to 1000 nM | < 200 nM
Cc1sc(C(=O)NC2COC2)cc1-n1ncc2cc(Nc3ccccc3Cl)cnc21 [Compound 68, 4-(5-((2-chlorophenyl)amino)-1H-pyrazolo[3,4-b]pyridin-1-yl)-5-methyl-N-(oxetan-3-yl)thiophene-2-carboxamide] | < 200 nM | 200 to 1000 nM | > 1000 nM
CC1COC(NC(=O)c2cc(-n3ncc4cc(Nc5ccccc5Cl)cnc43)cs2)=N1 (stereo not drawn) [Compound 69, 4-(5-((2-chlorophenyl)amino)-1H-pyrazolo[3,4-b]pyridin-1-yl)-N-(4-methyl-4,5-dihydrooxazol-2-yl)thiophene-2-carboxamide] | < 200 nM | 200 to 1000 nM | 200 to 1000 nM
O=C(NC1COC1)c1cc(-n2ncc3cc(Oc4ccccc4Cl)cnc32)cs1 [Compound 70, 4-(5-(2-chlorophenoxy)-1H-pyrazolo[3,4-b]pyridin-1-yl)-N-(oxetan-3-yl)thiophene-2-carboxamide] | < 200 nM | > 1000 nM | > 1000 nM
CC(=O)N1CC(NC(=O)c2cc(-n3ncc4cc(Nc5ccccc5Cl)cnc43)cs2)C1 [Compound 71, N-(1-acetylazetidin-3-yl)-4-(5-((2-chlorophenyl)amino)-1H-pyrazolo[3,4-b]pyridin-1-yl)thiophene-2-carboxamide] | < 200 nM | 200 to 1000 nM | < 200 nM
O=C(NCCCF)c1cc(-n2ncc3cc(Oc4ccccc4Cl)cnc32)cs1 [Compound 72, 4-(5-(2-chlorophenoxy)-1H-pyrazolo[3,4-b]pyridin-1-yl)-N-(3-fluoropropyl)thiophene-2-carboxamide] | < 200 nM | 200 to 1000 nM | 200 to 1000 nM
CNC(=O)c1cc(-n2ncc3cc(N(C)c4ccccc4OC)c(F)cc32)cs1 [Compound 75, 4-(6-fluoro-5-((2-methoxyphenyl)(methyl)amino)-1H-indazol-1-yl)-N-methylthiophene-2-carboxamide] | < 200 nM | 200 to 1000 nM | 200 to 1000 nM
CNC(=O)c1cc(-n2ncc3cc(Nc4ccccc4Cl)c(C)nc32)cs1 [Compound 76, 4-(5-((2-chlorophenyl)amino)-6-methyl-1H-pyrazolo[3,4-b]pyridin-1-yl)-N-methylthiophene-2-carboxamide] | < 200 nM | 200 to 1000 nM | 200 to 1000 nM
COc1ccccc1Nc1cc2cnn(-c3csc(C(=O)NC4COC4)c3)c2cc1F [Compound 77, 4-(6-fluoro-5-((2-methoxyphenyl)amino)-1H-indazol-1-yl)-N-(oxetan-3-yl)thiophene-2-carboxamide] | < 200 nM | > 1000 nM | < 200 nM
COc1cc2c(cnn2-c2csc(C(=O)NC3COC3)c2)cc1Nc1ccccc1Cl [Compound 78, 4-(5-((2-chlorophenyl)amino)-6-methoxy-1H-indazol-1-yl)-N-(oxetan-3-yl)thiophene-2-carboxamide] | < 200 nM | > 1000 nM | > 1000 nM
Cc1nc2c(cnn2-c2csc(C(=O)NC3(C)COC3)c2)cc1Nc1ccccc1Cl [Compound 79, 4-(5-((2-chlorophenyl)amino)-6-methyl-1H-pyrazolo[3,4-b]pyridin-1-yl)-N-(3-methyloxetan-3-yl)thiophene-2-carboxamide] | 200 to 1000 nM | > 1000 nM | > 1000 nM
CNC(=O)c1cc(-n2ncc3cc(Nc4ccccc4OC)c(F)cc32)cs1 [Compound 80, 4-(6-fluoro-5-((2-methoxyphenyl)amino)-1H-indazol-1-yl)-N-methylthiophene-2-carboxamide] | < 200 nM | > 1000 nM | 200 to 1000 nM
